Patent US11389449B2, “Treatment of metabolic syndrome with an sGC stimulator” (Cyclerion Therapeutics, Inc., priority 2017, dated 2022)
Entries after “also recorded” stand apart in the source; their conditions may differ.

Key:
[1] = test system: obese/high fat diet C57Bl/6J mice; assay: DIO mouse model: oral glucose tolerance test; type: in vivo; details: DIO HFD mice, approx 6 mg/kg in diet, week 4
Source text: The objective of this animal study was to evaluate the effects of Compound I in the mouse diet induced obesity (DIO) model. Assessments included body weight, food intake, oral glucose tolerance test (OGTT) and fasting plasma biomarkers of metabolic control.
Male C57Bl/6J mice with baseline body weights of 25.0-29.0 grams (lean controls) and 31.5-45.0 grams (obese/high fat diet treated) respectively, were used for this study. The lean mice (n=8) were maintained on a standard chow diet. The obese mice were given 60% high fat diet (HFD) starting at 6 weeks of age. All animals were allowed free access to drinking water and chow. The study was begun when the mice were 12 weeks of age and concluded after 4 weeks (16 weeks of age). The obese control group (n=8 mice) was maintained on HFD. The Compound I group (n=8 obese mice) was treated with HFD containing 90 mg Compound I/kg (an approximate dose of 6 mg/kg). Body weights were determined twice weekly and food intake was measured daily for 28 days. An OGTT was performed on each animal at day 28 or 29 and the animals were sacrificed on the following day. On the terminal day, 3 hour fasted blood was collected for compound concentrations and plasma biomarkers analysis including glucose, insulin and triglycerides. Organs were collected, weighed and snap frozen in liquid nitrogen for further analysis.

[2] = test system: patients with stable type 2 diabetes and hypertension; assay: Randomized placebo-controlled Phase 2a study of 2 dose regimens (NCT03091920), metabolic assessments; type: in vivo, human; details: for Apolipoprotein B Change LS Mean / Apolipoprotein B LS Mean Diff (placebo adjusted): serum; for serum triglycerides LS Mean Diff (placebo adjusted) / serum triglycerides LS Mean reduction from baseline: Day 15
Procedure: The serum ApoB level was determined using microsphere-based HSP-ApoB assay, consisting of using antigen-specific antibodies optimized in a capture-sandwich format. 5 μL of a diluted mixture of capture-antibody microspheres were mixed with 5 μL bloker and 10 μL standard, pre-diluted sample, or control in a hard-bottom microtiter plate. Plama and serum samples were diluted of the appropriate dilution. The plate was incubated for 1 hour at room temperature. 10 μL biotinylated detection antibody was added to each well, thoroughly-mixed and incubated for 1 hour. 10 μL diluted Streptavidin-phycoerythrin was added to each well, thoroughly mixed, and incubated for 60 minutes. A filter-membrane microtiter plate was pre-wetted by adding 100 μL wash buffer followed by aspiration via a vaccum manifoled device. The reaction contents of the hard-bottom plate were then transferred to the respective wells of the filter plate. All wells were vacuum aspirated and the contents were washed twice with 100 μL wash buffer. After the last wash, 100 μL wash buffer was added to each well, and the washed microspheres were resuspended with thorough mixing. The plate was then analyzed on the Luminex platform.
Plasma ADMA concentrations were determined by liquid chromatography and tandem mass spectrometry (LC-MS/MS). Plasma samples of the patients were collected in a purple-top container with K2 EDTA anticoagulant. The tube was filled completely and the sample was mixed well and separated by centrifugation. A minium volume of 0.20 mL was needed for testing and the plasma sample was extracted by a simple protein precipation. The supernatant was then transferred to a diluent before analysis. The extract was analyzed using liquid chromatography (LC) with tandem mass spectrometry (MS/MS). The standard curve was 10.0 ng/mL to 1000.0 ng/mL.
The primary objectives of this clinical study (ClinicalTrials.gov Identifier: NCT03091920) were to compare the safety, tolerability, PK profile, and PD effects of 2 treatment regimens of Compound I tablet (40 mg per day, as 20 mg BID or as 40 mg QD) administered orally for 2 weeks to patients with stable type 2 diabetes mellitus and hypertension. Patients in this trial were on stable medications for glucose control (blood glucose lowering medication, antihyperglycemics) and hypertension (antihypertensives). Secondary measurements included assessment of fasting glucose levels, fasting insulin levels, hemoglobin A1C (HbA1C) levels, serum cholesterol levels, ApoB levels, HOMA-IR, ADMA concentrations, serum triglyceride levels, BMI, liver transaminases and body weight, among others.
Allocation: Randomized; Intervention Model: Parallel Assignment; Masking: Triple (Participant, Care Provider, Investigator); Masking Description: Double-Blind; Primary Purpose: Treatment
This is a randomized, double-blind, placebo-controlled study consisting of 3 distinct periods (see FIG. 30).
13 male patients and 13 female patientes with stable type 2 diabetes and hypertension were enrolled. Patients were randomized in a 5:5:3 ratio (QD:BID:Placebo) to receive 1 of 2 Compound I treatment regimens or placebo (all regimens were masked) as outlined in the table above.
Clinic Period: The Clinic Period began at Check-in on Day-2 (2 days before dosing) and ended at the time of Discharge on Day 15. During the 17-day Clinic Period, patients were confined to the Study Center and received a standard diet for diabetics. Patients who met eligibility criteria based on Screening Visit assessments were admitted to the Study Center on Day-2 for baseline procedures. On the morning of Day 1 (there is no Day 0), eligible patients were randomized in a 5:5:3 ratio to 1 of 3 masked treatment regimens: QD/QD, BID/QD, or PBO/PBO. On Days 1 to 14, patients received a morning (AM) dose and an evening (PM) dose.
Compound I was administered as multiples of a 5 mg oral tablet dosage form. Placebo was administered as multiples of a 5 mg tablet. […]

[3] = 40 mg, regimens combined, 14 days
[4] = subgroup of 18 patients on concomitant statin therapy, regimens combined, 14 days

Q: How did the Fasting blood glucose [1] turn out when `OC(CNc1nc(-c2cc(-c3ccon3)n(Cc3ccccc3F)n2)ncc1F)(C(F)(F)F)C(F)(F)F` [Compound I] was run?
A: Its Fasting blood glucose is “not reduced”.

Q: And the “OGTT area above baseline change vs obese controls” value ([1]; P<0.05)?
A: Its value is −47%.

Q: And the “OGTT area under the curve change vs obese controls” value ([1]; P<0.05)?
A: The value was −22%.

Q: What about the “blood glucose excursion in OGTT vs obese controls” value ([1]; from 30 to 120 minutes) of the same compound?
A: Its value is “significant reductions”.

Q: What about the HDL cholesterol levels ([2]; 40 mg total daily dose, over the trial) of the same compound?
A: Its HDL cholesterol levels is “remained unchanged; also recorded: remained closed to baseline; also recorded: no changes”.

Q: And the “mean serum ALT decrease from baseline” value [2, 3]?
A: The value was 4.9 IU/L.

Q: And the “mean serum AST decrease from baseline” value [2, 3]?
A: Its value is 4.5 IU/L.

Q: What about the “mean serum GGT decrease from baseline” value [2, 3] of the same compound?
A: The value was 2.4 U/L.

Q: What about the “Mean Apo-B levels decline in treated patients” value ([2]; 14 days) of the same compound?
A: The value was “approximately 17%”.

Q: And the “HbA1C levels over placebo” value ([2]; 14 days of treatment)?
A: The value was “No meaningful improvements”.

Q: What about the “plasma fasting glucose LS Mean reduction from baseline” value ([2]; BID/QD (20 mg BID days 1-7; 40 mg QD days 8 to 14), day 15) of the same compound?
A: Its value is -35.3 mg/dL.

Q: And the “Apolipoprotein B Change LS Mean” value ([2]; BID/QD (N = 10), day 15)?
A: The value was -219.4 µg/mL.

Q: What about the “serum triglycerides LS Mean Diff (placebo adjusted)” value (“serum triglycerides LS Mean Diff” for short) ([2]; BID/QD) of the same compound?
A: Its value is -14.3 mg/dL.

Q: What about the “serum triglycerides LS Mean reduction from baseline” value ([2]; BID/QD) of the same compound?
A: Its value is -46.4 mg/dL.

Q: What about the “LDL cholesterol Mean Diff (SE), placebo adjusted” value (shortened to “LDL cholesterol Mean Diff (SE)”) ([2]; BID/QD, day 15) of the same compound?
A: Its value is −20.2 (9.2) mg/dL.

Q: And the “LDL cholesterol Mean reduction from baseline (SE), least square” value ([2]; BID/QD, day 15)?
A: The value was −14.0 (5.6) mg/dL.

Q: What about the “plasma fasting glucose LS Mean Diff (placebo adjusted)” value (“plasma fasting glucose LS Mean Diff” below) ([2]; BID/QD, day 15) of the same compound?
A: Its value is -15.6 mg/dL.

Q: What about the “serum cholesterol LS Mean Diff (placebo adjusted)” value (“serum cholesterol LS Mean Diff” for short) ([2]; BID/QD, day 15) of the same compound?
A: Its value is -20.9 mg/dL.

Q: What about the “serum cholesterol LS Mean reduction from baseline” value ([2]; BID/QD, day 15) of the same compound?
A: The value was -20.2 mg/dL.

Q: And the “serum LDL cholesterol reduced when compared to placebo” value (“serum LDL cholesterol reduced when” for short) ([2]; BID/QD, day 15, after 14 days of treatment)?
A: Its value is “about 20 mg/dL”.

Q: And the “serum LDL cholesterol reduced when” value ([2]; BID/QD, day 15, % of total cholesterol)?
A: The value was 13%.

Q: And the “Apolipoprotein B LS Mean Diff (placebo adjusted)” value ([2]; BID/QD, day 15)?
A: Its value is -168.9 µg/mL.

Q: What about the “plasma fasting glucose LS Mean reduction from baseline” value ([2]; Combined group (BID/QD and QD/QD), day 15) of the same compound?
A: Its value is -32.5 mg/dL.

Q: What about the “serum triglycerides LS Mean Diff” value ([2]; Combined group) of the same compound?
A: The value was -14.2 mg/dL.

Q: What about the “serum triglycerides LS Mean reduction from baseline” value ([2]; Combined group) of the same compound?
A: Its value is -46.2 mg/dL.

Q: And the “LDL cholesterol Mean Diff (SE)” value ([2]; Combined group, day 15)?
A: The value was −20.2 (8.3) mg/dL.

Q: And the “LDL cholesterol Mean reduction from baseline (SE), least square” value ([2]; Combined group, day 15)?
A: The value was −13.9 (4.0) mg/dL.

Q: And the “plasma fasting glucose LS Mean Diff” value ([2]; Combined group, day 15)?
A: Its value is -12.8 mg/dL.

Q: What about the “serum cholesterol LS Mean Diff” value ([2]; Combined group, day 15) of the same compound?
A: Its value is -25.5 mg/dL.

Q: And the “serum cholesterol LS Mean reduction from baseline” value ([2]; Combined group, day 15)?
A: Its value is -24.7 mg/dL.

Q: What about the “Apolipoprotein B Change LS Mean” value ([2]; Overall 40 mg Total Daily Dose (N = 20), day 15) of the same compound?
A: The value was -169.5 µg/mL.

Q: And the “plasma fasting glucose LS Mean reduction from baseline” value ([2]; QD/QD (40 mg QD days 1 to 14), day 15)?
A: The value was -29.6 mg/dL.

Q: And the “Apolipoprotein B Change LS Mean” value ([2]; QD/QD (N = 10), day 15)?
A: Its value is -119.6 µg/mL.

Q: And the “serum triglycerides LS Mean Diff” value ([2]; QD/QD)?
A: The value was -14.0 mg/dL.

Q: What about the “serum triglycerides LS Mean reduction from baseline” value ([2]; QD/QD) of the same compound?
A: Its value is -46.0 mg/dL.

Q: What about the “LDL cholesterol Mean Diff (SE)” value ([2]; QD/QD, day 15) of the same compound?
A: Its value is −19.9 (9.2) mg/dL.

Q: And the “LDL cholesterol Mean reduction from baseline (SE), least square” value ([2]; QD/QD, day 15)?
A: The value was −13.7 (5.6) mg/dL.

Q: What about the “plasma fasting glucose LS Mean Diff” value ([2]; QD/QD, day 15) of the same compound?
A: Its value is -10.0 mg/dL.

Q: What about the “serum cholesterol LS Mean Diff” value ([2]; QD/QD, day 15) of the same compound?
A: Its value is -30.1 mg/dL.

Q: What about the “serum cholesterol LS Mean reduction from baseline” value ([2]; QD/QD, day 15) of the same compound?
A: Its value is -29.3 mg/dL.

Q: What about the “serum LDL cholesterol reduced when” value ([2]; QD/QD, day 15, after 14 days of treatment) of the same compound?
A: The value was “about 20 mg/dL”.

Q: And the “serum LDL cholesterol reduced when” value ([2]; QD/QD, day 15, % of total cholesterol)?
A: The value was 13%.

Q: And the “Apolipoprotein B LS Mean Diff (placebo adjusted)” value ([2]; QD/QD, day 15)?
A: Its value is -69.1 µg/mL.

Q: What about the “fasting plasma insulin levels over placebo” value ([2]; all of 26 patients, including those on insulin therapy) of the same compound?
A: The value was “no meaningful improvements”.

Q: What about the “ADMA plasma concentration decrease from baseline” value ([2]; combined Compound I group, 14 day study, baseline of 105 ng/ml) of the same compound?
A: Its value is 8.7 ng/mL.

Q: And the “ADMA plasma concentration mean reduction adjusted to placebo” value ([2]; combined group, after 14 days of treatment)?
A: Its value is “about 11 ng/mL”.

Q: And the “serum ALT change compared to baseline” value ([2]; over 14 days)?
A: Its value is −4.9 IU/L.

Q: And the “serum ALT reduction compared to baseline” value ([2]; over 14 days)?
A: Its value is 20%.

Q: What about the “serum AST change compared to baseline” value ([2]; over 14 days) of the same compound?
A: The value was −4.5 IU/L.

Q: What about the “serum AST reduction compared to baseline” value ([2]; over 14 days) of the same compound?
A: Its value is 20%.

Q: And the “weight or BMI, adjusted to placebo” value ([2]; over the 14 days of treatment)?
A: Its value is “No meaningful changes”.

Q: And the “fasting plasma insulin change adjusted to placebo” value ([2]; patients not on insulin)?
A: The value was -13 pmol/L.

Q: What about the “reduction in HOMA-IR from baseline” value ([2]; patients not taking concomitant insulin (12 on Compound I), 14 days) of the same compound?
A: The value was 36%.

Q: And the “reduction in HOMA-IR adjusted to placebo” value ([2]; patients not taking concomitant insulin, 14 days)?
A: The value was 23%.

Q: What about the “apolipoprotein B decline, Compound I vs. PBO-treated patients” value ([2]; post-hoc analysis, 14 days) of the same compound?
A: Its value is -119 µg/mL.

Q: What about the “LDL cholesterol decrease in treated vs. placebo patients” value [2, 4] of the same compound?
A: The value was -16 mg/dL.

Q: What about the “total cholesterol decrease in treated vs. placebo patients” value [2, 4] of the same compound?
A: Its value is -17 mg/dL.

Q: And the mean decrease of plasma blood glucose relative to placebo ([2]; subgroup using only oral antihyperglycemic agents without insulin, regimens combined, 14 days)?
A: Its mean decrease of plasma blood glucose relative to placebo is -19 mg/dL.
